Results as given in patent US20250115583A1, “BICYCLIC INDAZOLE GLUCOCORTICOID RECEPTOR ANTAGONISTS” (Corcept Therapeutics Incorporated, priority 2021, published 2025).

Target: glucocorticoid receptor (Homo sapiens (Human), UniProt P04150)
Assay: HepG2 TAT assay: inhibition of dexamethasone-induced tyrosine aminotransferase (TAT) activity
Type: cell-based
Details: HepG2 cells, challenge of 100 nM dexamethasone, 18-24 hr; IC50 converted to Ki by Cheng and Prusoff equation
Description: Glucocorticoid mediated activation of TAT occurs by transactivation of glucocorticoid response elements in the TAT promoter by glucocorticoid receptor-agonist complex.
HepG2 cells were cultured using MEME media supplemented with 10% (v/v) foetal bovine serum; 2 mM L-glutamine and 1% (v/v) NEAA at 37° C., 5%/95% (v/v) CO2/air.
Compounds were serially half log diluted in 100% (v/v) dimethylsulphoxide from a 10 mM stock.
HepG2 cells were then lysed with 30 μl of cell lysis buffer containing a protease inhibitor cocktail for 15 minutes at 4° C. […] After 2 hours incubation at 37° C. the reaction was terminated by the addition of 15 μl of 10M aqueous potassium hydroxide solution, and the plates incubated for a further 30 minutes at 37° C.
[compound] and fitting the data to a 4 parameter logistic equation.

Chain of glucocorticoid receptor (P04150 whole entry): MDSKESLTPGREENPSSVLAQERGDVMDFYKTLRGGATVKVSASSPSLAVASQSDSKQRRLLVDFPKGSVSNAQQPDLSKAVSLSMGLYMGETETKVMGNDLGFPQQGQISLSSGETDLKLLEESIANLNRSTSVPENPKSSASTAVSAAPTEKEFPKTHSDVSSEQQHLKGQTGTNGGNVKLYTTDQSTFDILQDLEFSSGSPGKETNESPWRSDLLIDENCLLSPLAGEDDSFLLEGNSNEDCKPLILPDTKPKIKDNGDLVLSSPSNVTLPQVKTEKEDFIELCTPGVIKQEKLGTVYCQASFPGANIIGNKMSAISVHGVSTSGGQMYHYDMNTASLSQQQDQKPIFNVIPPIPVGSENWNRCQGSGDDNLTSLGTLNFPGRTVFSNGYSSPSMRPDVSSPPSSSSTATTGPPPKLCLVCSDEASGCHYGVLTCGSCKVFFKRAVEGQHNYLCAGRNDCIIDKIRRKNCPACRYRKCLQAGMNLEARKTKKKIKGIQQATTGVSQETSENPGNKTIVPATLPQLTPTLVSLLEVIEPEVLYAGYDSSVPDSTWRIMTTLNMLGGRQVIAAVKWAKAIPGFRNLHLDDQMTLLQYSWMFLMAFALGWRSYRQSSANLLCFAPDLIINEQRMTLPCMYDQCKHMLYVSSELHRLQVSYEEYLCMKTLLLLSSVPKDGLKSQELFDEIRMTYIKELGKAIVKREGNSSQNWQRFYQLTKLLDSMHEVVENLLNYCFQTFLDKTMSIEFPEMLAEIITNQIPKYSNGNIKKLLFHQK

SMILES	Ki
Cc1cc2c(cnn2-c2ccc(F)cc2)cc1[C@]12CN(S(=O)(=O)c3cnn(C)n3)C[C@H]1[C@@H]2C(=O)Nc1ccc(F)cn1 (stereo in doubt) [Example 57, 1-(1-(4-fluorophenyl)-6-methyl-1H-indazol-5-yl)-N-(5-fluoropyridin-2-yl)-3-((2-methyl-2H-1,2,3-triazol-4-yl)sulfonyl)-3-azabicyclo[3.1.0]hexane-6-carboxamide]	190 nM
CC(=O)N1C[C@H]2[C@H](C(=O)Nc3ccc(F)cn3)[C@@]2(c2cc3cnn(-c4ccc(F)cc4)c3cc2C)C1 (stereo in doubt) [Example 68, 3-acetyl-1-(1-(4-fluorophenyl)-6-methyl-1H-indazol-5-yl)-N-(5-fluoropyridin-2-yl)-3-azabicyclo[3.1.0]hexane-6-carboxamide]	90 nM
Cc1cc2c(cnn2-c2ccc(F)cc2)cc1[C@@]12CN(C(=O)c3ccccc3)C[C@@H]1[C@H]2c1ccccc1 (stereo in doubt) [Example 110, (1-(1-(4-fluorophenyl)-6-methyl-1H-indazol-5-yl)-6-phenyl-3-azabicyclo[3.1.0]hexan-3-yl)(phenyl)methanone]	23 nM
Cc1cc2c(cnn2-c2ccc(F)cc2)cc1[C@@]12CN(C(=O)c3cccc(C#N)c3)C[C@@H]1[C@H]2c1ccccc1 (stereo in doubt) [Example 114, 3-(1-(1-(4-fluorophenyl)-6-methyl-1H-indazol-5-yl)-6-phenyl-3-azabicyclo[3.1.0]hexane-3-carbonyl)benzonitrile]	26 nM
Cc1cc2c(cnn2-c2ccc(F)cc2)cc1[C@@]12CN(C(=O)c3ccc(C#N)cc3)C[C@@H]1[C@H]2c1ccccc1 (stereo in doubt) [Example 115, 4-(1-(1-(4-fluorophenyl)-6-methyl-1H-indazol-5-yl)-6-phenyl-3-azabicyclo[3.1.0]hexane-3-carbonyl)benzonitrile]	36 nM
Cc1cc2c(cnn2-c2ccc(F)cc2)cc1[C@@]12CN(C(=O)c3ccccn3)C[C@@H]1[C@H]2c1ccccc1 (stereo in doubt) [Example 116, (1-(1-(4-fluorophenyl)-6-methyl-1H-indazol-5-yl)-6-phenyl-3-azabicyclo[3.1.0]hexan-3-yl)(pyridin-2-yl)methanone]	31 nM
Cc1cc2c(cnn2-c2ccc(F)cc2)cc1[C@@]12CN(C(=O)c3cccc(F)c3)C[C@@H]1[C@H]2c1ccccc1 (stereo in doubt) [Example 117, (3-fluorophenyl)(1-(1-(4-fluorophenyl)-6-methyl-1H-indazol-5-yl)-6-phenyl-3-azabicyclo[3.1.0]hexan-3-yl)methanone]	34 nM
Cc1cc2c(cnn2-c2ccc(F)cc2)cc1[C@@]12CN(C(=O)C3CCC3)C[C@@H]1[C@H]2c1ccccc1 (stereo in doubt) [Example 120, cyclobutyl(1-(1-(4-fluorophenyl)-6-methyl-1H-indazol-5-yl)-6-phenyl-3-azabicyclo[3.1.0]hexan-3-yl)methanone]	52 nM
Cc1cc2c(cnn2-c2ccc(F)cc2)cc1[C@@]12CN(C(=O)N3CCOCC3)C[C@@H]1[C@H]2c1ccccc1 (stereo in doubt) [Example 121, (1-(1-(4-fluorophenyl)-6-methyl-1H-indazol-5-yl)-6-phenyl-3-azabicyclo[3.1.0]hexan-3-yl)(morpholino)methanone]	49 nM
Cc1noc([C@@H]2[C@H]3CN(S(=O)(=O)c4cnn(C)n4)C[C@]32c2cc3cnn(-c4ccc(F)cc4)c3cc2C)n1 (stereo in doubt) [Example 131, 5-(1-(1-(4-fluorophenyl)-6-methyl-1H-indazol-5-yl)-3-((2-methyl-2H-1,2,3-triazol-4-yl)sulfonyl)-3-azabicyclo[3.1.0]hexan-6-yl)-3-methyl-1,2,4-oxadiazole]	240 nM
Cc1cc2c(cnn2-c2ccc(F)cc2)cc1[C@@]12CN(S(=O)(=O)c3cnn(C)n3)C[C@@H]1[C@H]2Cn1cccn1 (stereo in doubt) [Example 132, 5-(6-((1H-pyrazol-1-yl)methyl)-3-((2-methyl-2H-1,2,3-triazol-4-yl)sulfonyl)-3-azabicyclo[3.1.0]hexan-1-yl)-1-(4-fluorophenyl)-6-methyl-1H-indazole]	350 nM
COCCOCCS(=O)(=O)N1C[C@@H]2[C@@H](c3ccccc3)[C@]2(c2cc3cnn(-c4ccc(F)cc4)c3cc2C)C1 (stereo in doubt) [Example 138, 1-(4-fluorophenyl)-5-(3-((2-(2-methoxyethoxy)ethyl)sulfonyl)-6-phenyl-3-azabicyclo[3.1.0]hexan-1-yl)-6-methyl-1H-indazole]	70 nM
Cc1cc2c(cnn2-c2ccc(F)cc2)cc1[C@@]12CN(S(=O)(=O)C3CCC3)C[C@@H]1[C@H]2c1ccccc1 (stereo in doubt) [Example 139, 5-(3-(cyclobutylsulfonyl)-6-phenyl-3-azabicyclo[3.1.0]hexan-1-yl)-1-(4-fluorophenyl)-6-methyl-1H-indazole]	45 nM
Cc1cc2c(cnn2-c2ccc(F)cc2)cc1[C@@]12CN(C(=O)c3cccc(N4CCOCC4)c3)C[C@@H]1[C@H]2c1ccccc1 (stereo in doubt) [Example 142, (1-(1-(4-fluorophenyl)-6-methyl-1H-indazol-5-yl)-6-phenyl-3-azabicyclo[3.1.0]hexan-3-yl)(3-morpholinophenyl)methanone]	15 nM
Cc1cc2c(cnn2-c2ccc(F)cc2)cc1[C@@]12CN(C(=O)c3cccc(C(F)F)c3)C[C@@H]1[C@H]2c1ccccc1 (stereo in doubt) [Example 143, (3-(difluoromethyl)phenyl)(1-(1-(4-fluorophenyl)-6-methyl-1H-indazol-5-yl)-6-phenyl-3-azabicyclo[3.1.0]hexan-3-yl)methanone]	25 nM
Cc1cc2c(cnn2-c2ccc(F)cc2)cc1[C@@]12CN(C(=O)c3cccc(C(F)(F)F)n3)C[C@@H]1[C@H]2c1ccccc1 (stereo in doubt) [Example 145, (1-(1-(4-fluorophenyl)-6-methyl-1H-indazol-5-yl)-6-phenyl-3-azabicyclo[3.1.0]hexan-3-yl)(6-(trifluoromethyl)pyridin-2-yl)methanone]	48 nM
Cc1cc2c(cnn2-c2ccc(F)cc2)cc1[C@@]12CN(C(=O)c3ccn(C)n3)C[C@@H]1[C@H]2c1ccccc1 (stereo in doubt) [Example 154, (1-(1-(4-fluorophenyl)-6-methyl-1H-indazol-5-yl)-6-phenyl-3-azabicyclo[3.1.0]hexan-3-yl)(1-methyl-1H-pyrazol-3-yl)methanone]	16 nM
Cc1cc2c(cnn2-c2ccc(F)cc2)cc1[C@@]12CN(C(=O)c3ncccc3F)C[C@@H]1[C@H]2c1ccccc1 (stereo in doubt) [Example 156, (1-(1-(4-fluorophenyl)-6-methyl-1H-indazol-5-yl)-6-phenyl-3-azabicyclo[3.1.0]hexan-3-yl)(3-fluoropyridin-2-yl)methanone]	20 nM
Cc1cc2c(cnn2-c2ccc(F)cc2)cc1[C@@]12CN(C(=O)c3ncc(F)cc3F)C[C@@H]1[C@H]2c1ccccc1 (stereo in doubt) [Example 157, (3,5-difluoropyridin-2-yl)(1-(1-(4-fluorophenyl)-6-methyl-1H-indazol-5-yl)-6-phenyl-3-azabicyclo[3.1.0]hexan-3-yl)methanone]	18 nM
Cc1cc2c(cnn2-c2ccc(F)cc2)cc1[C@@]12CN(C(=O)c3nccs3)C[C@@H]1[C@H]2c1ccccc1 (stereo in doubt) [Example 158, (1-(1-(4-fluorophenyl)-6-methyl-1H-indazol-5-yl)-6-phenyl-3-azabicyclo[3.1.0]hexan-3-yl)(thiazol-2-yl)methanone]	12 nM
Cc1cc2c(cnn2-c2ccc(F)cc2)cc1[C@@]12CN(C(=O)c3ccccc3S(C)(=O)=O)C[C@@H]1[C@H]2c1ccccc1 (stereo in doubt) [Example 159, (1-(1-(4-fluorophenyl)-6-methyl-1H-indazol-5-yl)-6-phenyl-3-azabicyclo[3.1.0]hexan-3-yl)(2-(methylsulfonyl)phenyl)methanone]	24 nM
Cc1cc2c(cnn2-c2ccc(F)cc2)cc1[C@@]12CN(C(=O)C3CCOCC3)C[C@@H]1[C@H]2c1ccccc1 (stereo in doubt) [Example 160, (1-(1-(4-fluorophenyl)-6-methyl-1H-indazol-5-yl)-6-phenyl-3-azabicyclo[3.1.0]hexan-3-yl)(tetrahydro-2H-pyran-4-yl)methanone]	70 nM
Cc1cc2c(cnn2-c2ccc(F)cc2)cc1[C@@]12CN(C(=O)c3ccnn3C)C[C@@H]1[C@H]2c1ccccc1 (stereo in doubt) [Example 161, (1-(1-(4-fluorophenyl)-6-methyl-1H-indazol-5-yl)-6-phenyl-3-azabicyclo[3.1.0]hexan-3-yl)(1-methyl-1H-pyrazol-5-yl)methanone]	61 nM
Cc1cc2c(cnn2-c2ccc(F)cc2)cc1[C@@]12CN(C(=O)c3ncccc3C)C[C@@H]1[C@H]2c1ccccc1 (stereo in doubt) [Example 162, (1-(1-(4-fluorophenyl)-6-methyl-1H-indazol-5-yl)-6-phenyl-3-azabicyclo[3.1.0]hexan-3-yl)(3-methylpyridin-2-yl)methanone]	29 nM
Cc1cc2c(cnn2-c2ccc(F)cc2)cc1[C@@]12CN(C(=O)c3cccc(C#N)n3)C[C@@H]1[C@H]2c1ccccc1 (stereo in doubt) [Example 164, 6-(1-(1-(4-fluorophenyl)-6-methyl-1H-indazol-5-yl)-6-phenyl-3-azabicyclo[3.1.0]hexane-3-carbonyl)picolinonitrile]	7.2 nM
